# Results: ChEMBL document CHEMBL1833895, “Synthesis and biological activity of desmethoxy analogues of coruscanone A” (Bioorg Med Chem Lett, 2011)
# Tests used:
# Candida albicans [1] = assay: Antifungal activity against Candida albicans ATCC 44859 after 48 hrs by microdilution method; format: functional; settings: ATCC 44859, 48 h
# Pichia kudriavzevii [2] = assay: Antifungal activity against Candida krusei E28 after 24 hrs by microdilution method; format: functional; settings: E28, 24 h
# Pichia kudriavzevii [3] = assay: Antifungal activity against Candida krusei E28 after 48 hrs by microdilution method; format: functional; settings: E28, 48 h
# Candida tropicalis [4] = assay: Antifungal activity against Candida tropicalis 156 after 24 hrs by microdilution method; format: functional; settings: Candida tropicalis, 156, 24 h
# Candida tropicalis [5] = assay: Antifungal activity against Candida tropicalis 156 after 48 hrs by microdilution method; format: functional; settings: Candida tropicalis, 156, 48 h
# Nakaseomyces glabratus [6] = assay: Antifungal activity against Candida glabrata 20/I after 24 hrs by microdilution method; format: functional
# Nakaseomyces glabratus [7] = assay: Antifungal activity against Candida glabrata 20/I after 48 hrs by microdilution method; format: functional
# Trichosporon asahii [8] = assay: Antifungal activity against Trichosporon asahii 1188 after 24 hrs by microdilution method; format: functional; settings: Trichosporon asahii, 1188, 24 h
# Trichosporon asahii [9] = assay: Antifungal activity against Trichosporon asahii 1188 after 48 hrs by microdilution method; format: functional; settings: Trichosporon asahii, 1188, 48 h
# Aspergillus fumigatus [10] = assay: Antifungal activity against Aspergillus fumigatus 231 after 24 hrs by microdilution method; format: functional, organism-based; settings: Aspergillus fumigatus, 231, 24 h
# Aspergillus fumigatus [11] = assay: Antifungal activity against Aspergillus fumigatus 231 after 48 hrs by microdilution method; format: functional, organism-based; settings: Aspergillus fumigatus, 231, 48 h
# Lichtheimia corymbifera [12] = assay: Antifungal activity against Absidia corymbifera 272 after 24 hrs by microdilution method; format: functional, organism-based; settings: Lichtheimia corymbifera, 272, 24 h
# Lichtheimia corymbifera [13] = assay: Antifungal activity against Absidia corymbifera 272 after 48 hrs by microdilution method; format: functional, organism-based; settings: Lichtheimia corymbifera, 272, 48 h
# Candida albicans [14] = assay: Antifungal activity against Candida albicans ATCC 44859 after 24 hrs by microdilution method; format: functional; settings: ATCC 44859, 24 h
# [15] = test system: Trichophyton mentagrophytes; assay: Antifungal activity against Trichophyton mentagrophytes 445 after 72 hrs by microdilution method; format: functional, organism-based; settings: Trichophyton mentagrophytes, 445, 72 h
# [16] = test system: Trichophyton mentagrophytes; assay: Antifungal activity against Trichophyton mentagrophytes 445 after 120 hrs by microdilution method; format: functional, organism-based; settings: Trichophyton mentagrophytes, 445, 120 h
# L1210 [17] = assay: Cytostatic activity against mouse L1210 cells after 72 hrs by XTT assay; format: ADME, cell-based; settings: L1210, 72 h
# HL-60 [18] = assay: Cytostatic activity against human HL60 cells after 72 hrs by XTT assay; format: ADME, cell-based; settings: HL-60, 72 h
# CCRF-CEM [19] = assay: Cytostatic activity against human CCRF-CEM cells after 72 hrs by XTT assay; format: ADME, cell-based
# Candida albicans [20] = assay: Antifungal activity against Candida albicans ATCC 90028 after 24 hrs by microdilution method; format: functional; settings: ATCC 90028, 24 h
# Candida albicans [21] = assay: Antifungal activity against Candida albicans ATCC 90028 after 48 hrs by microdilution method; format: functional; settings: ATCC 90028, 48 h
# Candida parapsilosis [22] = assay: Antifungal activity against Candida parapsilosis ATCC 22019 after 24 hrs by microdilution method; format: functional; settings: Lodderomyces parapsilosis, ATCC 22019, 24 h
# Candida parapsilosis [23] = assay: Antifungal activity against Candida parapsilosis ATCC 22019 after 48 hrs by microdilution method; format: functional; settings: Lodderomyces parapsilosis, ATCC 22019, 48 h
# Pichia kudriavzevii [24] = assay: Antifungal activity against Candida krusei ATCC 6258 after 24 hrs by microdilution method; format: functional; settings: ATCC 6258, 24 h
# Pichia kudriavzevii [25] = assay: Antifungal activity against Candida krusei ATCC 6258 after 48 hrs by microdilution method; format: functional; settings: ATCC 6258, 48 h
# Clavispora lusitaniae [26] = assay: Antifungal activity against Candida lusitaniae 2446/I after 24 hrs by microdilution method; format: functional
# Clavispora lusitaniae [27] = assay: Antifungal activity against Candida lusitaniae 2446/I after 48 hrs by microdilution method; format: functional
# L1210 [28] = assay: Cytostatic activity against mouse L1210 cells at 10 umol/L after 72 hrs by XTT assay; format: ADME, cell-based; settings: l1210, 72 h, 10 µM
# HL-60 [29] = assay: Cytostatic activity against human HL60 cells at 10 umol/L after 72 hrs by XTT assay; format: ADME, cell-based; settings: hl-60, 72 h, 10 µM
# [30] = Cytostatic activity against human HeLaS3 cells after 48 hrs by XTT assay; format: ADME, cell-based; settings: HeLa S3, 48 h
# CCRF-CEM [31] = assay: Cytostatic activity against human CCRF-CEM cells at 10 umol/L after 72 hrs by XTT assay; format: ADME, cell-based; settings: 10 µM
# HT-29 = assay: Cytostatic activity against human HT-29 cells at 10 umol/L after 72 hrs by XTT assay; format: ADME, cell-based; settings: ht-29, 72 h, 10 µM
# [32] = Cytostatic activity against human COLO201 cells at 10 umol/L after 72 hrs by XTT assay; format: ADME, cell-based; settings: colo 201, 72 h, 10 µM
# [33] = Cytostatic activity against human COLO201 cells after 72 hrs by XTT assay; format: ADME, cell-based; settings: COLO 201, 72 h
# [34] = Cytostatic activity against human HeLaS3 cells at 10 umol/L after 48 hrs by XTT assay; format: ADME, cell-based; settings: hela s3, 48 h, 10 µM
Compound,IC80 (Candida albicans [1]),IC80 (Pichia kudriavzevii [2]),IC80 (Pichia kudriavzevii [3]),IC80 (Candida tropicalis [4]),IC80 (Candida tropicalis [5]),IC80 (Nakaseomyces glabratus [6]),IC80 (Nakaseomyces glabratus [7]),IC80 (Trichosporon asahii [8]),IC80 (Trichosporon asahii [9]),IC80 (Aspergillus fumigatus [10]),IC80 (Aspergillus fumigatus [11]),IC80 (Lichtheimia corymbifera [12]),IC80 (Lichtheimia corymbifera [13]),IC80 (Candida albicans [14]),IC80 [15],IC50 [16],IC80 (Candida albicans [20]),IC80 (Candida albicans [21]),IC80 (Candida parapsilosis [22]),IC80 (Candida parapsilosis [23]),other results
COC(/C=C/c1ccccc1)=C1\C(=O)C=C(C)C1=O [CORUSCANONE A],3.91 µM,125 µM,250 µM,3.91 µM,7.1 µM,125 µM,125 µM,0.98 µM,7.81 µM,31.2 µM,250 µM,31.2 µM,250 µM,0.98 µM,3.91 µM,7.81 µM,–,–,–,–,IC50 (L1210 [17]): 3.8 µM; IC50 (HL-60 [18]): 4.5 µM; IC50 (CCRF-CEM [19]): 3.6 µM
Cc1ccc(/C=C/C=C2C(=O)C=CC2=O)cc1,7.81 µM,7.81 µM,15.6 µM,7.81 µM,7.81 µM,31.2 µM,31.2 µM,31.2 µM,> 125 µM,62.5 µM,> 125 µM,> 125 µM,> 125 µM,3.9 µM,125 µM,> 125 µM,7.81 µM,7.81 µM,7.81 µM,31.2 µM,IC80 (Pichia kudriavzevii [24]): 7.81 µM; IC80 (Pichia kudriavzevii [25]): 15.6 µM; IC80 (Clavispora lusitaniae [26]): 7.81 µM; IC80 (Clavispora lusitaniae [27]): 15.6 µM; Activity (L1210 [28]): Non-toxic; Activity (HL-60 [29]): Non-toxic; IC50 [30]: 7.3 µM; Activity (CCRF-CEM [31]): Non-toxic; Activity (HT-29): Non-toxic; Activity [32]: Non-toxic
O=C1C=CC(=O)C1=Cc1ccc2ccccc2c1,15.6 µM,31.2 µM,31.2 µM,31.2 µM,31.2 µM,31.2 µM,31.2 µM,15.6 µM,62.5 µM,15.6 µM,31.2 µM,125 µM,> 125 µM,15.6 µM,7.81 µM,15.6 µM,15.6 µM,15.6 µM,15.6 µM,15.6 µM,IC80 (Pichia kudriavzevii [24]): 15.6 µM; IC80 (Pichia kudriavzevii [25]): 31.2 µM; IC80 (Clavispora lusitaniae [26]): 15.6 µM; IC80 (Clavispora lusitaniae [27]): 15.6 µM; Activity (L1210 [28]): Non-toxic; Activity (HL-60 [29]): Non-toxic; IC50 [30]: 13.5 µM; IC50 (CCRF-CEM [19]): 3.7 µM; Activity (HT-29): Non-toxic; IC50 [33]: 2.4 µM
CN(C)c1ccc(C=C2C(=O)C=CC2=O)cc1,31.2 µM,7.81 µM,7.81 µM,62.5 µM,> 125 µM,62.5 µM,> 125 µM,7.81 µM,15.6 µM,15.6 µM,31.2 µM,> 125 µM,> 125 µM,31.2 µM,0.98 µM,0.98 µM,31.2 µM,62.5 µM,3.9 µM,7.81 µM,IC80 (Pichia kudriavzevii [24]): 7.81 µM; IC80 (Pichia kudriavzevii [25]): 7.81 µM; IC80 (Clavispora lusitaniae [26]): 7.81 µM; IC80 (Clavispora lusitaniae [27]): 31.2 µM; Activity (L1210 [28]): Non-toxic; Activity (HL-60 [29]): Non-toxic; Activity [34]: Non-toxic; IC50 (CCRF-CEM [19]): 4.3 µM; Activity (HT-29): Non-toxic; IC50 [33]: 1.3 µM
O=C1C=CC(=O)C1=C/C=C/c1ccc(Cl)cc1,62.5 µM,62.5 µM,62.5 µM,62.5 µM,62.5 µM,62.5 µM,62.5 µM,62.5 µM,125 µM,62.5 µM,125 µM,> 250 µM,> 250 µM,62.5 µM,62.5 µM,250 µM,62.5 µM,62.5 µM,62.5 µM,62.5 µM,IC80 (Pichia kudriavzevii [24]): 62.5 µM; IC80 (Pichia kudriavzevii [25]): 62.5 µM; IC80 (Clavispora lusitaniae [26]): 62.5 µM; IC80 (Clavispora lusitaniae [27]): 62.5 µM; Activity (L1210 [28]): Non-toxic; Activity (HL-60 [29]): Non-toxic; Activity [34]: Non-toxic; Activity (CCRF-CEM [31]): Non-toxic; Activity (HT-29): Non-toxic; Activity [32]: Non-toxic
